Where “and” joins values, the source holds several entries; their conditions need not be identical. Equal entries are not always repeated.
Tests used:
Format in all cases: cell-based, human
[1] = MTT cytotoxicity assay, HF-P4; conditions: human, HF-P4 normal human dermal fibroblasts, repeats, read-out: Cell viability %
Protocol: (§1) The effects of the tested compounds 1–6 on HF-P4, U-118 MG, H1299, BT-20, and Caov-3 cell lines were evaluated by the MTT assay during 48 h treatment (Table 2 and Tables S2–S31). In all tested compounds, we recognized a difference in cytotoxicity between healthy cells (HF-P4) and cancer cell lines (BT-20, Caov-3, and H-1299). […] In the case of ovarian cancer, the authors discovered oncogenic and poor prognosis roles of TET1 in epithelial ovarian carcinoma (EOC). TET1 is believed to demethylate the epigenome and activate numerous oncogenic pathways in EOC. The aforementioned study presents a new mechanism where TET1 contributes to tumor development through collaboration with CK2α [21]. The overexpression of the TET1 protein was also found in triple negative breast cancer and was associated with an activation of PI3K/mTOR pathway and decreased overall survival.
(§2) A human dermal fibroblast cell line was used for intracellular localization and cytotoxicity assay (MTT). Human fibroblast cells HF-P4 (human fibroblasts—patient 4) are normal dermal fibroblasts, which were obtained from the residual skin of a healthy patient who underwent plastic surgery (with informed consent of the patient). HF-P4 cell lines were obtained from the Department of Plastic Surgery, Third Faculty of Medicine, Charles University and University Hospital Královské Vinohrady, Prague, Czech Republic, as described by Szabo et al., 2011, and Dvořánková et al., 2019 [88, 89], and have been processed in accordance with the relevant local ethics committee and the Declaration of Helsinki protection of patients’ rights and benefits with written and signed informed consent of each patient. Cells were cultivated under standard conditions in Dulbecco’s modified Eagle’s medium (ATCC, Manassas, VA, USA), supplemented with 10% FBS and streptomycin (100 μg/mL) at 37 °C at a 5% CO2 atmosphere.
(§3) For the cytotoxicity assay, we used the following cell lines: human glioblastoma cell line U118-MG, human mammary gland/breast cell line BT-20, human ovary adenocarcinoma cell line Caov-3, and non-small-cell lung carcinoma H-1299. As previously mentioned, these cell lines contain a high level of the TET1 protein, which corresponds to a lower overall survival. In addition to these cell cultures, we used the human dermal fibroblast cell line HF-P4 as a healthy control. Determination of cytotoxicity was performed using the MTT [3-(4,5-dimethylthiazol-2-yl)-2,5-diphenyltetrazolium bromide] colorimetric assay. Viable cells from each cell line were cultured in 96-well plates (VWR, Stříbrná Skalice, Czech Republic) at a density of 1.0 × 10^5 cells per well and allowed to grow for 24 h in 200 μL of recommended medium. After a 1-day incubation, the medium was replaced with solutions of compounds 1–6 at concentration ranges of 0.1–20 μM. Each concentration was measured four times within one test, and the entire test was repeated three times. Tested compounds 1–6 were dissolved in DMSO and then diluted with corresponding medium to a final volume of 200 μL (maximum 1% DMSO). After 48 h exposure, cells were treated with 175 μL of MTT solution (P-LAB, Prague, Czech Republic) for 2 h. In the next step, MTT solution was removed, and 125 μL of DMSO (Penta, Prague, Czech Republic) was added to solubilize dark crystals of formazan formed in intact cells, and absorbance was measured at 570 nm by the enzyme-linked immunoabsorbent assay reader Infinite® 200 PRO (Tecan, Männedorf, Switzerland). The final DMSO concentration was smaller than 1% (v/v). The absorbance of untreated cells was considered 100%, and IC50 values were calculated by the GraphPad Prism 8 software. As a parameter for cytotoxicity, we used a concentration that inhibits 50% of cell growth (IC50).

HF-P4 cells = assay: MTT cytotoxicity assay, HF-P4; conditions: 48 h; for Cell viability %: repeats
Protocol: as §1, §2, §3

H-1299 cells = assay: MTT cytotoxicity assay, H-1299
Protocol: as §1
A human glioblastoma cell line (U118-MG) and a human non-small-cell lung carcinoma cell line (H1299) were used for the cytotoxicity assay (MTT). Both cell lines were generously supplied by Dr. M. Masařik, PhD, Department of Pathological physiology, Masaryk University, Czech Republic. U118-MG cells were cultivated under standard conditions in Dulbecco’s modified Eagle’s medium (ATCC, Manassas, VA, USA) supplemented with 10% FBS and streptomycin (100 μg/mL) at 37 °C at a 5% CO2 atmosphere. H1299 cells were cultivated under standard conditions in RPMI 1640 (BioTech, Prague, Czech Republic) medium supplemented with 10% FBS and streptomycin (100 μg/mL) at 37 °C at a 5% CO2 atmosphere.
as §3

Caov-3 cells = assay: MTT cytotoxicity assay, Caov-3
Protocol: as §1
The human ovary adenocarcinoma cell line (Caov-3), purchased from ATCC (Caov-3 (ATCC® HTB-75™), Manassas, VA, USA), was used for the cytotoxicity assay (MTT). Caov-3 cells were cultivated under standard conditions in Dulbecco’s modified Eagle’s medium (ATCC, Manassas, VA, USA) supplemented with 10% FBS and streptomycin (100 μg/mL) at 37 °C at a 5% CO2 atmosphere.
as §3

`Cc1ccc(-n2c(-c3ccc(C(=O)N/N=C/c4ccc(O)cc4O)cc3)cc3c2cc(-c2ccc(C(=O)N/N=C/c4ccc(O)cc4O)cc2)n3-c2ccc(C)cc2)cc1` [Compound 4] showed a viability at 48 h, 0.1 µM ([1]; HF-P4, 100 nM) of 102%, a viability at 48 h, 0.5 µM ([1]; HF-P4, 500 nM) of 94.9% and a viability at 48 h, 0.75 µM ([1]; HF-P4, 750 nM) of 84.8%. The viability at 48 h, 1 µM ([1]; HF-P4, 1 uM) was 86%, the viability at 48 h, 2.5 µM ([1]; HF-P4, 2.5 uM) was 74.5% and the viability at 48 h, 5 µM ([1]; HF-P4, 5 uM) was 74.9%. It also gave a viability at 48 h, 7.5 µM ([1]; HF-P4, 7.5 uM) of 66.9%, a viability at 48 h, 10 µM ([1]; HF-P4, 10 uM) of 59.9% and a viability at 48 h, 15 µM ([1]; HF-P4, 15 uM) of 45.1%. The viability at 48 h, 20 µM ([1]; HF-P4, 20 uM) was 36.4%, the Cell viability % (HF-P4 cells; HF-P4, 100 nM, 0.1 µM) was 100.6236% and 114.7117% and the Cell viability % (HF-P4 cells; HF-P4, 500 nM, 0.5 µM) was 87.47% and 94.87%. The Cell viability % (HF-P4 cells; HF-P4, 750 nM, 0.75 µM) was 85.1% and 92.38%, the Cell viability % (HF-P4 cells; HF-P4, 1 uM, 1 µM) was 81.67% and 86.71% and the Cell viability % (HF-P4 cells; HF-P4, 2.5 uM, 2.5 µM) was 86.63% and 76.23%. The Cell viability % (HF-P4 cells; HF-P4, 5 uM, 5 µM) was 73.34% and 61.32%, the Cell viability % (HF-P4 cells; HF-P4, 7.5 uM, 7.5 µM) was 70.27% and 58.24% and the Cell viability % (HF-P4 cells; HF-P4, 10 uM, 10 µM) was 62.49% and 65.68%. For the same compound, the Cell viability % (HF-P4 cells; HF-P4, 15 uM, 15 µM) was 53.94% and 54.86%, the Cell viability % (HF-P4 cells; HF-P4, 20 uM, 20 µM) was 38.68% and 44.63% and the IC50 (HF-P4 cells; Homo sapiens, MTT) was 13.1 µM. The Cell viability % (H-1299 cells; H-1299, 100 nM, 48 h, repeats, 0.1 µM) was 109.0835% and 92.98%, the Cell viability % (H-1299 cells; H-1299, 500 nM, 48 h, repeats, 0.5 µM) was 110.8313% and 69.08% and 86.72% and the Cell viability % (H-1299 cells; H-1299, 750 nM, 48 h, repeats, 0.75 µM) was 86.2% and 81.89%. The Cell viability % (H-1299 cells; H-1299, 1 uM, 48 h, repeats, 1 µM) was 88.02% and 73.99% and 66.83%, the Cell viability % (H-1299 cells; H-1299, 2.5 uM, 48 h, repeats, 2.5 µM) was 77.91% and 68.92% and the Cell viability % (H-1299 cells; H-1299, 5 uM, 48 h, repeats, 5 µM) was 68.74% and 52.75%. For the same compound, the Cell viability % (H-1299 cells; H-1299, 7.5 uM, 48 h, repeats, 7.5 µM) was 38.28% and 33.07%, the Cell viability % (H-1299 cells; H-1299, 10 uM, 48 h, repeats, 10 µM) was 21.64% and 18.84% and the Cell viability % (H-1299 cells; H-1299, 15 uM, 48 h, repeats, 15 µM) was 10.46% and 11.78%. For the same compound, the Cell viability % (H-1299 cells; H-1299, 20 uM, 48 h, repeats, 20 µM) was 7.89% and 6.315%, the viability at 0.1 µM (H-1299 cells; Homo sapiens, NCI-H1299, 48 h, H-1299, 100 nM, repeats, read-out: Cell viability %) was 110% and the viability at 0.75 µM (H-1299 cells; Homo sapiens, NCI-H1299, 48 h, H-1299, 750 nM, repeats, read-out: Cell viability %) was 86.1%. For the same compound, the viability at 2.5 µM (H-1299 cells; Homo sapiens, NCI-H1299, 48 h, H-1299, 2.5 uM, repeats, read-out: Cell viability %) was 77.6%, the viability at 5 µM (H-1299 cells; Homo sapiens, NCI-H1299, 48 h, H-1299, 5 uM, repeats, read-out: Cell viability %) was 66.7% and the viability at 7.5 µM (H-1299 cells; Homo sapiens, NCI-H1299, 48 h, H-1299, 7.5 uM, repeats, read-out: Cell viability %) was 35.8%. It also gave a viability at 10 µM (H-1299 cells; Homo sapiens, NCI-H1299, 48 h, H-1299, 10 uM, repeats, read-out: Cell viability %) of 14.8%, a viability at 15 µM (H-1299 cells; Homo sapiens, NCI-H1299, 48 h, H-1299, 15 uM, repeats, read-out: Cell viability %) of 11.1% and a viability at 20 µM (H-1299 cells; Homo sapiens, NCI-H1299, 48 h, H-1299, 20 uM, repeats, read-out: Cell viability %) of 7.35%. The IC50 (H-1299 cells; Homo sapiens, NCI-H1299, MTT, 48 h) was 5.75 µM, the Cell viability % (Caov-3 cells; Caov-3, 100 nM, 48 h, repeats, 0.1 µM) was 84.95% and 82.17% and the Cell viability % (Caov-3 cells; Caov-3, 500 nM, 48 h, repeats, 0.5 µM) was 102.391% and 108.5681%. For the same compound, the Cell viability % (Caov-3 cells; Caov-3, 750 nM, 48 h, repeats, 0.75 µM) was 102.8833% and 94.08%, the Cell viability % (Caov-3 cells; Caov-3, 1 uM, 48 h, repeats, 1 µM) was 98.73% and 92.87% and the Cell viability % (Caov-3 cells; Caov-3, 2.5 uM, 48 h, repeats, 2.5 µM) was 74.65% and 110.1266% and 69.7%. The Cell viability % (Caov-3 cells; Caov-3, 5 uM, 48 h, repeats, 5 µM) was 50.71% and 80.94% and 55.26%, the Cell viability % (Caov-3 cells; Caov-3, 7.5 uM, 48 h, repeats, 7.5 µM) was 53.66% and 54.17% and the Cell viability % (Caov-3 cells; Caov-3, 10 uM, 48 h, repeats, 10 µM) was 41.07% and 42.6107%. The Cell viability % (Caov-3 cells; Caov-3, 15 uM, 48 h, repeats, 15 µM) was 17.58% and 17.6%, the Cell viability % (Caov-3 cells; Caov-3, 20 uM, 48 h, repeats, 20 µM) was 14.91% and 14.49% and the viability at 0.1 µM (Caov-3 cells; Homo sapiens, Caov-3, 48 h, Caov-3, 100 nM, repeats, read-out: Cell viability %) was 68.6%. The viability at 0.5 µM (Caov-3 cells; Homo sapiens, Caov-3, 48 h, Caov-3, 500 nM, repeats, read-out: Cell viability %) was 104%, the viability at 0.75 µM (Caov-3 cells; Homo sapiens, Caov-3, 48 h, Caov-3, 750 nM, repeats, read-out: Cell viability %) was 92.8% and the viability at 1 µM (Caov-3 cells; Homo sapiens, Caov-3, 48 h, Caov-3, 1 uM, repeats, read-out: Cell viability %) was 101%. For the same compound, the viability at 7.5 µM (Caov-3 cells; Homo sapiens, Caov-3, 48 h, Caov-3, 7.5 uM, repeats, read-out: Cell viability %) was 53.1%, the viability at 10 µM (Caov-3 cells; Homo sapiens, Caov-3, 48 h, Caov-3, 10 uM, repeats, read-out: Cell viability %) was 42.9% and the viability at 15 µM (Caov-3 cells; Homo sapiens, Caov-3, 48 h, Caov-3, 15 uM, repeats, read-out: Cell viability %) was 19.5%. For the same compound, the viability at 20 µM (Caov-3 cells; Homo sapiens, Caov-3, 48 h, Caov-3, 20 uM, repeats, read-out: Cell viability %) was 14.3% and the IC50 (Caov-3 cells; Homo sapiens, Caov-3, MTT, 48 h) was 9.13 µM.

From publication PMC9505425, “Targeting of the Mitochondrial TET1 Protein by Pyrrolo[3,2-b]pyrrole Chelators” (International Journal of Molecular Sciences, 2022)
